Tests used:
[1] = molecular target: T1, human CB1 receptor (Homo sapiens, UniProt P21554); assay: bioSensAll GAPL-Gi2 BRET biosensor assay in HEK293 cells transfected with hCB1; test compound added before EC75-80 of agonist CP55,940 (0.1 nM); assay type: cell-based; details: vs CP55,940 0.1 nM (EC75-80), read-out: CB1 wt Gi2 IC50
T1 construct: expressed in transfected cells; host or cells: HEK293
Procedure: (§1) Using polyethylenimine (PEI) transfection agent, HEK293 cells were transfected in suspension with the human CB1 receptor and one of the following bioSensAll® assays: GAPL-Gi2, or β-arrestin plasma membrane (PM) translocation biosensor (+GRK2). Cells were directly seeded in 96-well plates immediately following transfection.
(§2) Cells were incubated with coelenterazine (luciferase substrate) and different test compounds prior to the measurement of BRET signals.
(§3) Used in this project are i) Gα plasma membrane (GAPL) biosensors and the ii) β-arrestin plasma membrane translocation biosensor.
i) GAPL sensors are used to monitor the activation of heterotrimeric G proteins at the plasma membrane upon receptor stimulation. Specifically, these multimolecular BRET sensors detect the plasma membrane recruitment of proteins that interact with active Gα subunits in a G protein family-selective manner. G protein activation following receptor stimulation generally leads to an increase in the BRET signal.
(§4) HEK293 cells were maintained in Dulbecco's Modified Eagle Medium (DMEM) (Wisent; cat #319-030-CL: without sodium pyruvate, with 4.5 g/L glucose, without L-glutamine) supplemented with 1% penicillin-streptomycin (Wisent; cat #450-201-EL) and 2 or 10% fetal bovine serum (Wisent cat #090150).
(§5) HEK293 cells were co-transfected with hCB1 and one of the above-listed bioSensAll® assays. For each transfection condition: • the total amount of transfected DNA was kept constant at 1 μg per mL of cell culture to be transfected; whenever necessary, salmon sperm DNA (Invitrogen, cat #15632011) was used as ‘carrier’ DNA to supplement plasmid DNA (i.e., biosensor and receptor); • the PEI (polyethylenimine 25 kDa linear, PolyScience, cat #23966) to DNA ratio (ug:ug) was fixed at 3:1.
(§6) Transfections were carried out as follows: • DNA and PEI were first diluted separately in 150 mM NaCl. The volume of the diluent in each tube corresponds to 5% of the cell culture volume to be transfected. • Once DNA and PEI were diluted, the PEI-containing solution was added to the DNA solution and the DNA/PEI mixture immediately vortexed for 5 seconds. • The DNA/PEI mixture was incubated for at least 20 minutes at room temperature to allow for the formation of DNA/PEI complexes. • During the incubation, HEK293 cells were detached, counted and re-suspended in culture medium (composition specified above). • At the end of the incubation period, the DNA/PEI mixture was added to the cells. • Cells were finally distributed in 96-well plates (White Opaque 96-well/Microplates, Greiner, cat #655083 or CulturPlate-96, White Opaque 96-well Microplate, PerkinElmer, cat #6005688) at a density of 30,000 cells per well.
(§7) At 48 hours post-transfection: • Using 450-Select TS Biotek plate washer, culture medium was aspirated and replaced with 100 μL of Hank's Balanced Salt Solution buffer (HBSS) (Wisent, cat #319-067CL: without red phenol; with sodium bicarbonate, with calcium and magnesium, with HEPES) per well. • Plates were then incubated (equilibrated) at 37° C., 5% CO2 for 60 minutes. • Increasing doses of test compounds were then added to each well using the HP D300e digital dispenser (Tecan). All compounds were assayed at the following 12 concentrations (in nM) with each biosensor: 0.000, 0.013, 0.040, 0.120, 0.320, 0.960, 2.80, 8.00, 24.0, 70.0, 205 and 600. • Three to 5 minutes later, an assay-specific effective concentration (EC)75-80 of agonist CP55,940 (i.e., 0.1 nM and 100 nM for G[…]i2-GAPL or […]Arrestin2 (+GRK2) assay, respectively) was added to wells previously injected with test compound (i.e., previous step 3). […]

[2] = molecular target: T1, human CB1 receptor; assay: bioSensAll β-arrestin2 plasma membrane translocation (+GRK2) BRET biosensor assay in HEK293 cells transfected with hCB1; test compound added before EC75-80 of agonist CP55,940 (100 nM); assay type: cell-based; details: βArrestin2 (+GRK2) BRET biosensor, vs CP55,940 100 nM (EC75-80), read-out: CB1 wt βarr2 IC50
Procedure: as §1, §2, §3
ii) The multimolecular β-arrestin membrane recruitment biosensors allow for real-time spatio-temporal monitoring of β-arrestin 1 and β-arrestin 2 following GPCR activation. Specifically, these β-arrestin sensors were designed to detect the recruitment of proteins to the plasma membrane (β-arrestin PM) with localization to compartment resulting in an increased BRET signal.
as §4, §5, §6, §7

T1 sequence (P21554 whole entry): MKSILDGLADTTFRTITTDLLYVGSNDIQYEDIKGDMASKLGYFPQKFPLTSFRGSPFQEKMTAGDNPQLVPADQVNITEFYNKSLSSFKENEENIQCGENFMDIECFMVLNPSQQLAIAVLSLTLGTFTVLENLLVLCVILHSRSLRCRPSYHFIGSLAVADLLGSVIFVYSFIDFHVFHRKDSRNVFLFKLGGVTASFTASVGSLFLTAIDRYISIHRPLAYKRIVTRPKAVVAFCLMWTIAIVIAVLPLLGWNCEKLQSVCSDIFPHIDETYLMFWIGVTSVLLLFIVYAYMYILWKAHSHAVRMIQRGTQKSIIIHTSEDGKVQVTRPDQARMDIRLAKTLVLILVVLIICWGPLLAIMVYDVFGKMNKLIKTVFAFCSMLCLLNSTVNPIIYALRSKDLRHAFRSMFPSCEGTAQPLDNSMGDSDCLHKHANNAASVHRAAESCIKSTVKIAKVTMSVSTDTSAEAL

IC50 [1] [nM] | IC50 [2] [nM] | SMILES
1.47 | 6.8 | COCCOc1nc(N2CCC(C)(C(N)=O)CC2)c2nc(-c3ccccc3Cl)n(-c3ccc(Cl)cc3)c2n1 [Compound 10, 1-[8-(2-chlorophenyl)-9-(4-chlorophenyl)-2-(2-methoxyethoxy)purin-6-yl]-4-methyl-piperidine-4-carboxamide]
2.01 | 30.1 | CC1(C(N)=O)CCN(c2nc(NCCS(C)(=O)=O)nc3c2nc(-c2ccccc2Cl)n3-c2ccc(Cl)cc2)CC1 [Compound 11, 1-[8-(2-chlorophenyl)-9-(4-chlorophenyl)-2-(2-methylsulfonylethylamino)purin-6-yl]-4-methyl-piperidine-4-carboxamide]
0.5 | 3.09 | CC1(C(N)=O)CCN(c2nc(N(CCO)Cc3ccccc3)nc3c2nc(-c2ccccc2Cl)n3-c2ccc(Cl)cc2)CC1 [Compound 12, 1-[2-[benzyl(2-hydroxyethyl)amino]-8-(2-chlorophenyl)-9-(4-chlorophenyl)purin-6-yl]-4-methyl-piperidine-4-carboxamide]
7.02 | > 5000 | CC1(C(N)=O)CCN(c2nc(N3CCC[C@@H]3CO)nc3c2nc(-c2ccccc2Cl)n3-c2ccc(Cl)cc2)CC1 [Compound 13, 1-[8-(2-chlorophenyl)-9-(4-chlorophenyl)-2-[(2R)-2-(hydroxymethyl)pyrrolidin-1-yl]purin-6-yl]-4-methyl-piperidine-4-carboxamide]
6.5 | 34.5 | CC1(C(N)=O)CCN(c2nc(N3C[C@H]4CCC[C@H]4C3)nc3c2nc(-c2ccccc2Cl)n3-c2ccc(Cl)cc2)CC1 [Compound 14, 1-[2-[(3aS,6aR)-3,3a,4,5,6,6a-hexahydro-1H-cyclopenta[c]pyrrol-2-yl]-8-(2-chlorophenyl)-9-(4-chlorophenyl)purin-6-yl]-4-methyl-piperidine-4-carboxamide]
1.29 | 8.03 | CC1(C(N)=O)CCN(c2nc(N3C[C@H]4C[C@H]4C3)nc3c2nc(-c2ccccc2Cl)n3-c2ccc(Cl)cc2)CC1 [Compound 15, 1-[2-[(1R,5S)-3-azabicyclo[3.1.0]hexan-3-yl]-8-(2-chlorophenyl)-9-(4-chlorophenyl)purin-6-yl]-4-methyl-piperidine-4-carboxamide]
0.315 | 1.51 | CC1(C(N)=O)CCN(c2nc(N3CCS(=O)(=O)CC3)nc3c2nc(-c2ccccc2Cl)n3-c2ccc(Cl)cc2)CC1 [Compound 16, 1-[8-(2-chlorophenyl)-9-(4-chlorophenyl)-2-(1,1-dioxo-1,4-thiazinan-4-yl)purin-6-yl]-4-methyl-piperidine-4-carboxamide]
0.617 | 2.39 | CC1(C(N)=O)CCN(c2nc(OC3CCCOC3)nc3c2nc(-c2ccccc2Cl)n3-c2ccc(Cl)cc2)CC1 (stereo not shown) [Compound 17, 1-[8-(2-chlorophenyl)-9-(4-chlorophenyl)-2-tetrahydropyran-3-yloxy-purin-6-yl]-4-methyl-piperidine-4-carboxamide]
3.73 | 11.3 | CC(=O)NC(=N)Nc1nc(N2CCC(C)(C(N)=O)CC2)c2nc(-c3ccccc3Cl)n(-c3ccc(Cl)cc3)c2n1 [Compound 18, 1-[2-[(N-acetylcarbamimidoyl)amino]-8-(2-chlorophenyl)-9-(4-chlorophenyl)purin-6-yl]-4-methyl-piperidine-4-carboxamide]
0.187 | 1.07 | CN(CCO)c1nc(N2CCC(C)(C(N)=O)CC2)c2nc(-c3ccccc3Cl)n(-c3ccc(Cl)cc3)c2n1 [Compound 19, 1-[8-(2-chlorophenyl)-9-(4-chlorophenyl)-2-[2-hydroxyethyl(methyl)amino]purin-6-yl]-4-methyl-piperidine-4-carboxamide]
0.255 | 0.568 | CC1(C(N)=O)CCN(c2nc(N3CCC[C@H]3CO)nc3c2nc(-c2ccccc2Cl)n3-c2ccc(Cl)cc2)CC1 [Compound 20, 1-[8-(2-chlorophenyl)-9-(4-chlorophenyl)-2-[(2S)-2-(hydroxymethyl)pyrrolidin-1-yl]purin-6-yl]-4-methyl-piperidine-4-carboxamide]
4.37 | 28.9 | Cc1cnn(-c2nc(N3CCC(C(F)(F)F)CC3)c3nc(-c4ccccc4Cl)n(-c4ccc(Cl)cc4)c3n2)c1 [Compound 21, 8-(2-chlorophenyl)-9-(4-chlorophenyl)-2-(4-methylpyrazol-1-yl)-6-[4-(trifluoromethyl)-1-piperidyl]purine]
1.33 | 11.3 | Cc1ccn(-c2nc(N3CCC(C(F)(F)F)CC3)c3nc(-c4ccccc4Cl)n(-c4ccc(Cl)cc4)c3n2)n1 [Compound 22, 8-(2-chlorophenyl)-9-(4-chlorophenyl)-2-(3-methylpyrazol-1-yl)-6-[4-(trifluoromethyl)-1-piperidyl]purine]
0.846 | 4.36 | OCCCOc1nc(N2CCC(C(F)(F)F)CC2)c2nc(-c3ccccc3Cl)n(-c3ccc(Cl)cc3)c2n1 [Compound 23, 3-[8-(2-chlorophenyl)-9-(4-chlorophenyl)-6-[4-(trifluoromethyl)-1-piperidyl]purin-2-yl]oxypropan-1-ol]
1.5 | 10.2 | COCCOc1nc(N2CCC(C(F)(F)F)CC2)c2nc(-c3ccccc3Cl)n(-c3ccc(Cl)cc3)c2n1 [Compound 27, 8-(2-chlorophenyl)-9-(4-chlorophenyl)-2-(2-methoxyethoxy)-6-[4-(trifluoromethyl)-1-piperidyl]purine]
1.02 | 12.2 | CS(=O)(=O)CCNc1nc(N2CCC(C(F)(F)F)CC2)c2nc(-c3ccccc3Cl)n(-c3ccc(Cl)cc3)c2n1 [Compound 28, 8-(2-chlorophenyl)-9-(4-chlorophenyl)-N-(2-methylsulfonylethyl)-6-[4-(trifluoromethyl)-1-piperidyl]purin-2-amine]
6.92 | > 5000 | OC[C@H]1CCCN1c1nc(N2CCC(C(F)(F)F)CC2)c2nc(-c3ccccc3Cl)n(-c3ccc(Cl)cc3)c2n1 [Compound 29, [(2R)-1-[8-(2-chlorophenyl)-9-(4-chlorophenyl)-6-[4-(trifluoromethyl)-1-piperidyl]purin-2-yl]pyrrolidin-2-yl]methanol]
14.4 | 60 | FC(F)(F)C1CCN(c2nc(N3C[C@H]4CCC[C@H]4C3)nc3c2nc(-c2ccccc2Cl)n3-c2ccc(Cl)cc2)CC1 [Compound 30, 2-[(3aS,6aR)-3,3a,4,5,6,6a-hexahydro-1H-cyclopenta[c]pyrrol-2-yl]-8-(2-chlorophenyl)-9-(4-chlorophenyl)-6-[4-(trifluoromethyl)-1-piperidyl]purine]
2.76 | 21.8 | FC(F)(F)C1CCN(c2nc(N3C[C@H]4C[C@H]4C3)nc3c2nc(-c2ccccc2Cl)n3-c2ccc(Cl)cc2)CC1 [Compound 31, 2-[(1R,5S)-3-azabicyclo[3.1.0]hexan-3-yl]-8-(2-chlorophenyl)-9-(4-chlorophenyl)-6-[4-(trifluoromethyl)-1-piperidyl]purine]
0.509 | 3.02 | O=S1(=O)CCN(c2nc(N3CCC(C(F)(F)F)CC3)c3nc(-c4ccccc4Cl)n(-c4ccc(Cl)cc4)c3n2)CC1 [Compound 32, 4-[8-(2-chlorophenyl)-9-(4-chlorophenyl)-6-[4-(trifluoromethyl)-1-piperidyl]purin-2-yl]-1,4-thiazinane 1,1-dioxide]

Source: patent publication US20250333418A1, “PURINE COMPOUNDS, COMPOSITIONS COMPRISING THEM AND USES THEREOF” (Novo Nordisk A/S, priority 2022, published 2025)
